System: Staphylococcus aureus
Assay: Antibacterial activity against methicillin resistant Staphylococcus aureus NCTC 10442 in presence of 1 mmol/L Mg2+ by broth microdilution method
Format: functional

## CCCCCCCN1c2ccccc2Sc2ccc(OCC(=O)N[C@@H](CCCNC(=N)N)C(=O)N[C@@H](CCCNC(=N)N)C(N)=O)cc21
  MIC: 3.12 mg/L

From ChEMBL document CHEMBL5634090, “Design of phenothiazine-based cationic amphiphilic derivatives incorporating arginine residues: Potential membrane-active broad-spectrum antimicrobials combating pathogenic bacteria in vitro and in vivo” (Eur J Med Chem, 2023)
